According to patent publication US4826958A, “Renin inhibiting compounds” (Abbott Laboratories, priority 1988, dated 1989):
Each block holds one compound with its values, some of them ahead of it.

Target: T1, human renal renin (Homo sapiens, UniProt P00797)
T1 construct: human renal renin, free from acid proteolytic activity; from tissue; host or cells: human kidney (renal)
T1 sequence (P00797 67-406): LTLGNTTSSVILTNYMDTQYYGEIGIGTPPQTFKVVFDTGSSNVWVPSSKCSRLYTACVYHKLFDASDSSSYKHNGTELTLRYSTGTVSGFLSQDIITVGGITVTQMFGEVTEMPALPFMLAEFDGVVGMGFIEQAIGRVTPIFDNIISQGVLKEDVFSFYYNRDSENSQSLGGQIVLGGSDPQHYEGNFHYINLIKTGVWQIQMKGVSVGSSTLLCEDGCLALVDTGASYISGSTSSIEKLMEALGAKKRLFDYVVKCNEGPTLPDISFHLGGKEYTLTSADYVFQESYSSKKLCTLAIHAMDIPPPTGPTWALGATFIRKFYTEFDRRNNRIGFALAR
Test: inhibition of human renal renin in vitro, angiotensin I formed measured by radioimmunoassay
Format: biochemical
Conditions: human renal renin with human renin substrate (angiotensinogen), 37° C., pH 6.0

Compound: 2(R,S)-(4-morpholinylcarbonylmethyl)-3-(4'-methoxyphenyl)-propionyl-His-ACHPA-amide of 2-methylbutylamine [Example 89]
IC50: 61 nM

Compound: CCC(C)CNC(=O)CC(O)C(CC1SCCCS1)NC(=O)C(CSC)NC(=O)C(Cc1ccccc1)NC(=O)OC(C)(C)C (stereo not drawn) [Example 79, Boc-Phe-S-methylcysteinyl-[3-hydroxy-4-amino-5-(1',3'-dithian-2'-yl)]-pentanoic acid amide of 2-methylbutylamine]
IC50: 6 nM

Compound: CCOC(=O)N[C@@H](Cc1ccccc1)C(=O)N[C@@H](CC(C)C)C(=O)NC(CC1OCCCO1)C(O)CC(=O)NCC(C)CC (stereo partly drawn) [Example 82, Ethoxycarbonyl-Phe-Leu-[3-hydroxy-4-amino-5-(1',3'-dioxan-2'-yl)]-pentanoicacid amide of 2-methylbutylamine]
IC50: 7500 nM

Compound: CCC(C)CNC(=O)CC(O)C(CC1CCCCC1)NC(=O)C(CSC)NC(=O)C(Cc1ccccc1)NC(=O)N1C[C@@H](O)[C@@H](O)C1 (stereo partly drawn) [Example 95, (3,4-cis-dihydroxypyrrolidinylcarbonyl)-Phe-S-methyl-cys-ACHPA-amide of 2-Methylbutylamine]
IC50: 0.56 nM

Compound: CCC(C)CNC(=O)C(OCc1ccccc1)C(O)C(CC1CCCCC1)NC(=O)[C@H](C)NC(=O)[C@H](Cc1ccccc1)NC(=O)OC(C)(C)C (stereo partly drawn) [Example 32, Boc-Phe-Alaninyl-4-amino-2-benzyloxy-3-hydroxy-5-cyclohexylpentanoic acid amide of 2-methylbutylamine]
IC50: 6 nM

Compound: 2(R,S)-(4-morpholinylcarbonylmethyl)-3-(1'-naphthyl)-propionyl-His-ACHPA-amide of 2-methylbutylamine [Example 87]
IC50: 2 nM

Compound: CCCC(C(=O)NCC(C)CC)C(O)C(CC1CCCCC1)NC(=O)C(Cc1cnc[nH]1)NC(=O)C(Cc1ccccc1)NC(=O)OC(C)(C)C (stereo not drawn) [Example 46, Boc-Phe-Histidinyl-4-amino-2-propyl-3-hydroxy-5-cyclohexylpentanoic acid amide of 2-methylbutylamine]
IC50: 1.5 nM

Compound: CC(C)CCNC(=O)CC(O)C(CC1CCCCC1)NC(=O)C(Cc1cnc[nH]1)NC(=O)C(Cc1ccccc1)NC(=O)OC(C)(C)C (stereo not drawn) [Example 25, Boc-Phe-His-ACHPA amide of isopentylamine]
IC50: 5 nM

Compound: C=CCC(C(=O)NCC(C)CC)C(O)C(CC1CCCCC1)NC(=O)C(CSC)NC(=O)C(Cc1ccccc1)NC(=O)OC(C)(C)C (stereo not drawn) [Example 50, Boc-Phe-S-methylcysteinyl-4-amino-2-allyl-3-hydroxy-5-cyclohexylpentanoic acid amide of 2-methylbutylamine]
IC50: 1 nM

Compound: CC(C)CC(NC(=O)C(Cc1cnc[nH]1)NC(=O)C(Cc1ccccc1)NC(=O)OC(C)(C)C)C(O)CC(=O)NCc1ccccc1 (stereo not drawn) [Example 10, Boc-Phe-His-Sta amide of benzylamine]
IC50: 700 nM

Compound: CCC(C)CNC(=O)C(O)C(O)C(CC1CCCCC1)NC(=O)C(Cc1cnc[nH]1)NC(=O)C(Cc1ccccc1)NC(=O)OC(C)(C)C (stereo not drawn) [Example 35, Boc-Phe-Histidinyl-4-amino-2,3-dihydroxy-5-cyclohexylpentanoic acid amide of 2-methylbutylamine]
IC50: 7 nM

Compound: CCC(C)CNC(=O)C(OC)C(O)C(CC1CCCCC1)NC(=O)[C@H](Cc1cnc[nH]1)NC(=O)[C@H](Cc1ccccc1)NC(=O)OC(C)(C)C (stereo partly drawn) [Example 40, Boc-Phe-Histidinyl-4-amino-2-methoxy-3-hydroxy-5-cyclohexylpentanoic acid amide of 2-methylbutylamine]
IC50: 30 nM

Compound: CCC(C)CNC(=O)CC(O)C(CC1SCCS1)NC(=O)[C@H](CSC)NC(=O)[C@H](Cc1ccccc1)NC(=O)OC(C)(C)C (stereo partly drawn) [Example 78, Boc-Phe-S-methylcysteinyl-[3-hydroxy-4-amino-5-(1',3'-dithiolan-2'-yl)]-pentanoic acid amide of 2-methylbutylamine]
IC50: 1 nM

Compound: (3,4-cis-dihydroxypyrrolidinylcarbonyl)-O-methyl-Tyr-O-methyl-Ser-ACHPA Amide of 2-Methylbutylamine [Example 97]
IC50: 16 nM

Compound: C=CCC(C(=O)NCC(C)CC)C(O)C(CC1CCCCC1)NC(=O)C(C)NC(=O)C(Cc1ccccc1)NC(=O)OC(C)(C)C (stereo not drawn) [Example 49, Boc-Phe-Alaninyl-4-amino-2-allyl-3-hydroxy-5-cyclohexylpentanoic acid amide of 2-methylbutylamine]
IC50: 1.5 nM

Compound: CCC(C)C(CO)NC(=O)CC(O)C(CC(C)C)NC(=O)C(C)NC(=O)C(Cc1cccc2ccccc12)NC(=O)OC(C)(C)C (stereo not drawn) [Example 13, Boc-(α-Naphthyl)Ala-Ala-Sta-amide of isoleucinol]
IC50: 50 nM

Next, values leading:

IC50: 100 nM
Compound: CCC(C)CNC(=O)CC(O)C(CC(C)C)NC(=O)C(Cc1cnc[nH]1)NC(=O)C(Cc1ccccc1)NC(=O)CC(C)(C)C (stereo not drawn) [Example 16, t-Butylacetyl-Phe-His-Sta amide of 2-methylbutylamine]

IC50: 400 nM
Compound: Boc-(α-Naphthyl)-Ala-Ala-Sta amide of benzylamine [Example 11]

IC50: 20 nM
Compound: CCC(C)CNC(=O)C(O)C(O)C(CC1CCCCC1)NC(=O)C(C)NC(=O)C(Cc1ccccc1)NC(=O)OC(C)(C)C (stereo not drawn) [Example 34, Boc-Phe-Alaninyl-4-amino-2,3-dihydroxy-5-cyclohexylpentanoic acid amide of 2-methylbutylamine]

IC50: 1 nM
Compound: C=CCC(C(=O)NCC(C)CC)C(O)C(CC1CCCCC1)NC(=O)C(Cc1cnc[nH]1)NC(=O)C(Cc1ccccc1)NC(=O)OC(C)(C)C (stereo not drawn) [Example 45, Boc-Phe-Histidinyl-4-amino-2-allyl-3-hydroxy-5-cyclohexylpentanoic acid amide of 2-methylbutylamine]

IC50: 1000 nM
Compound: CCC(C)CNC(=O)C[C@H](O)[C@H](CC(C)C)NC(=O)[C@H](Cc1c[nH]cn1)NC(=O)[C@H](Cc1ccc(I)cc1)NC(=O)OC(C)(C)C (stereo partly drawn) [Example 17, Boc-p-iodo-Phe-His-Sta amide of 2-methylbutylamine]

IC50: 700 nM
Compound: CCC(C)CNC(=O)CC(O)C(CC1OCCCO1)NC(=O)[C@H](CSC)NC(=O)[C@H](Cc1ccccc1)NC(=O)OC(C)(C)C (stereo partly drawn) [Example 81, Boc-Phe-S-methylcysteinyl-[3-hydroxy-4-amino-5-(1',3'-dioxan-2'-yl)]-pentanoic acid amide of 2-methylbuylamine]

IC50: 35 nM
Compound: CCC(C)CNC(=O)C(OCc1ccccc1)C(O)C(CC1CCCCC1)NC(=O)C(Cc1cnc[nH]1)NC(=O)C(Cc1ccccc1)NC(=O)OC(C)(C)C (stereo not drawn) [Example 33, Boc-Phe-Histidinyl-4-amino-2-benzyloxy-3-hydroxy-5-cyclohexylpentanoic acid amide of 2-methylbutylamine]

IC50: 0.7 nM
Compound: CCC(C)CNC(=O)C(OC)C(O)C(CC1CCCCC1)NC(=O)C(CSC)NC(=O)C(Cc1ccccc1)NC(=O)OC(C)(C)C (stereo not drawn) [Example 48, Boc-Phe-S-methylcysteinyl-4-amino-2-methoxy-3-hydroxy-5-cyclohexlpentanoic acid amide of 2-methylbutylamine]

IC50: 600 nM
Compound: CCC(C)CNC(=O)CC(O)C(CC1OCCO1)NC(=O)C(CSC)NC(=O)C(Cc1ccccc1)NC(=O)OC(C)(C)C (stereo not drawn) [Example 80, Boc-Phe-S-methylcysteinyl-[3-hydroxy-4-amino-5-(1',3'-dioxolan-2'-yl)]-pentanoic acid amide of 2-methylbutylamine]

IC50: 1.5 nM
Compound: CCC(C)CNC(=O)CC(O)C(CC1SCCS1)NC(=O)C(Cc1cnc[nH]1)NC(=O)C(Cc1ccccc1)NC(=O)OC(C)(C)C (stereo not drawn) [Example 83, Boc-Phe-His-[3-hydroxy-4-amino-5-(1',3'-dithiolan-2'-yl)]-pentanoic acid amide of 2-methylbutylamine]

IC50: 500 nM
Compound: CC(C)CNC(=O)CC(O)C(CC(C)C)NC(=O)C(Cc1cnc[nH]1)NC(=O)C(Cc1ccccc1)NC(=O)OC(C)(C)C (stereo not drawn) [Example 12, Boc-Phe-His-Sta amide of isobutylamine]

IC50: 1 nM
Compound: CCC(C)CNC(=O)C(OC)C(O)C(CC1CCCCC1)NC(=O)C(CCSC)NC(=O)C(Cc1ccccc1)NC(=O)OC(C)(C)C (stereo not drawn) [Example 47, Boc-Phe-Methioninyl-4-amino-2-methoxy-3-hydroxy-5-cyclohexylpentanoic acid amide of 2-methylbutylamine]
